Source: PubChem BioAssay AID2060510 (Molecular Pharmacology Branch, DTP, NCI, 2025)

System: 439559-082-T-J2-PDC spheroids viability
Test: Anticancer human tumor 439559-082-T-J2-PDC patient-derived colon adenocarcinoma cell line growth inhibition [GQUAD]
Details: for IC50: curve of first compound; for viability, T/C: stronger effect = lower value
Method in brief: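 Multi-cell-type spheroids of tumor cells with HUVEC and mesenchymal stem cells, treated with drug combinations. Concentrations descend in half-log steps from near clinical Cmax, or from 10 microM where Cmax is unknown; viability read-out.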

[1] = second compound 0.0316 µM, first compound 0.0316 µM
[2] = second compound 0.0316 µM, first compound 0.316 µM
[3] = second compound 0.1 µM, first compound 0.0316 µM
[4] = second compound 0.1 µM, first compound 0.316 µM
[5] = second compound 0.316 µM, first compound 0.0316 µM
[6] = second compound 0.316 µM, first compound 0.316 µM
[7] = second compound 1 µM, first compound 0.0316 µM
[8] = second compound 1 µM, first compound 0.316 µM
[9] = second compound 3.16 µM, first compound 0.0316 µM
[10] = second compound 3.16 µM, first compound 0.316 µM
[11] = second compound 10 µM, first compound 0.0316 µM
[12] = second compound 10 µM, first compound 0.316 µM
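Further: spheroids exposed to the agents for 7 days before readout.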
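Wherever viability, T/C is given: percent of luminescence signal in DMSO vehicle wells taken as 100% viability.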

COc1ncnc(C2CC2)c1-c1ncc2cnn(Cc3ccc(-c4nc(C(F)(F)F)cn4C(C)C)cc3)c2n1 + Cc1cnc(CNC(=O)c2c(=O)c3ccc(N4CCCN(C)CC4)nc3n3c2sc2ccccc23)cn1
IC50 (second compound 0.0316 µM): > 10000 nM | IC50 (second compound 0.1 µM): > 10000 nM | IC50 (second compound 0.316 µM): > 10000 nM | IC50 (second compound 1 µM): > 10000 nM | IC50 (second compound 3.16 µM): > 10000 nM | IC50 (second compound 10 µM): > 10000 nM | viability, T/C [1]: 106% | viability, T/C (second compound 0.0316 µM, first compound 0.1 µM): 92% | viability, T/C [2]: 93.4% | viability, T/C (second compound 0.0316 µM, first compound 1 µM): 105% | viability, T/C (second compound 0.0316 µM, first compound 3.16 µM): 95.5% | viability, T/C (second compound 0.0316 µM, first compound 10 µM): 97.5% | viability, T/C [3]: 103% | viability, T/C (second compound 0.1 µM, first compound 0.1 µM): 101% | viability, T/C [4]: 87.4% | viability, T/C (second compound 0.1 µM, first compound 1 µM): 95.4% | viability, T/C (second compound 0.1 µM, first compound 3.16 µM): 97.6% | viability, T/C (second compound 0.1 µM, first compound 10 µM): 96.5% | viability, T/C [5]: 86.5% | viability, T/C (second compound 0.316 µM, first compound 0.1 µM): 85.1% | viability, T/C [6]: 89.5% | viability, T/C (second compound 0.316 µM, first compound 1 µM): 79.3% | viability, T/C (second compound 0.316 µM, first compound 3.16 µM): 93.5% | viability, T/C (second compound 0.316 µM, first compound 10 µM): 77.4% | viability, T/C [7]: 74.4% | viability, T/C (second compound 1 µM, first compound 0.1 µM): 78% | viability, T/C [8]: 64.9% | viability, T/C (second compound 1 µM, first compound 1 µM): 81.8% | viability, T/C (second compound 1 µM, first compound 3.16 µM): 83.7% | viability, T/C (second compound 1 µM, first compound 10 µM): 73% | viability, T/C [9]: 66.4% | viability, T/C (second compound 3.16 µM, first compound 0.1 µM): 69.3% | viability, T/C [10]: 69.2% | viability, T/C (second compound 3.16 µM, first compound 1 µM): 69.6% | viability, T/C (second compound 3.16 µM, first compound 3.16 µM): 70% | viability, T/C (second compound 3.16 µM, first compound 10 µM): 69% | viability, T/C [11]: 66.8% | viability, T/C (second compound 10 µM, first compound 0.1 µM): 58% | viability, T/C [12]: 58.9% | viability, T/C (second compound 10 µM, first compound 1 µM): 66.3% | viability, T/C (second compound 10 µM, first compound 3.16 µM): 67% | viability, T/C (second compound 10 µM, first compound 10 µM): 63.9%

Cc1[nH]c2ccccc2c1CCNCc1ccc(/C=C/C(=O)NO)cc1 + Cc1cnc(CNC(=O)c2c(=O)c3ccc(N4CCCN(C)CC4)nc3n3c2sc2ccccc23)cn1
IC50 (second compound 0.0316 µM): > 316 nM | IC50 (second compound 0.1 µM): > 316 nM | IC50 (second compound 0.316 µM): > 316 nM | IC50 (second compound 1 µM): > 316 nM | IC50 (second compound 3.16 µM): > 316 nM | IC50 (second compound 10 µM): 205 nM | viability, T/C (second compound 0.0316 µM, first compound 0.000999 µM): 101% | viability, T/C (second compound 0.0316 µM, first compound 0.00316 µM): 92.8% | viability, T/C (second compound 0.0316 µM, first compound 0.00999 µM): 99% | viability, T/C [1]: 90.6% | viability, T/C (second compound 0.0316 µM, first compound 0.0999 µM): 81.7% | viability, T/C [2]: 63.7% | viability, T/C (second compound 0.1 µM, first compound 0.000999 µM): 104% | viability, T/C (second compound 0.1 µM, first compound 0.00316 µM): 100% | viability, T/C (second compound 0.1 µM, first compound 0.00999 µM): 87.5% | viability, T/C [3]: 93.9% | viability, T/C (second compound 0.1 µM, first compound 0.0999 µM): 85.9% | viability, T/C [4]: 59.8% | viability, T/C (second compound 0.316 µM, first compound 0.000999 µM): 92.7% | viability, T/C (second compound 0.316 µM, first compound 0.00316 µM): 85.4% | viability, T/C (second compound 0.316 µM, first compound 0.00999 µM): 89.6% | viability, T/C [5]: 76.2% | viability, T/C (second compound 0.316 µM, first compound 0.0999 µM): 80.8% | viability, T/C [6]: 65.2% | viability, T/C (second compound 1 µM, first compound 0.000999 µM): 86.8% | viability, T/C (second compound 1 µM, first compound 0.00316 µM): 79.6% | viability, T/C (second compound 1 µM, first compound 0.00999 µM): 80.4% | viability, T/C [7]: 71.8% | viability, T/C (second compound 1 µM, first compound 0.0999 µM): 83.1% | viability, T/C [8]: 55.7% | viability, T/C (second compound 3.16 µM, first compound 0.000999 µM): 73.4% | viability, T/C (second compound 3.16 µM, first compound 0.00316 µM): 70.1% | viability, T/C (second compound 3.16 µM, first compound 0.00999 µM): 81.4% | viability, T/C [9]: 74.1% | viability, T/C (second compound 3.16 µM, first compound 0.0999 µM): 73.7% | viability, T/C [10]: 53.9% | viability, T/C (second compound 10 µM, first compound 0.000999 µM): 70% | viability, T/C (second compound 10 µM, first compound 0.00316 µM): 68.7% | viability, T/C (second compound 10 µM, first compound 0.00999 µM): 64.2% | viability, T/C [11]: 67% | viability, T/C (second compound 10 µM, first compound 0.0999 µM): 67.5% | viability, T/C [12]: 39.5%
